Measurements as given in ChEMBL document CHEMBL1201861, “Genomics of Drug Sensitity in Cancer screening data, Wellcome Trust Sanger Institute”.

Columns and labels:
[1] = test system: LP-1; assay: cells; assay type: functional, cell-based, Homo sapiens; conditions: Homo sapiens, LP-1;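 further: growth inhibition of human LP-1 cells, with the read-out taken from a cell viability assay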
Description: SANGER: Inhibition of human LP-1 cell growth in a cell viability assay.

[2] = test system: SIG-M5; assay: cells; assay type: functional, cell-based, Homo sapiens; conditions: Homo sapiens, SIG-M5;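 further: cell viability assay read-out, measuring how strongly growth of cultured human SIG-M5 cells is inhibited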
Description: SANGER: Inhibition of human SIG-M5 cell growth in a cell viability assay.

[3] = test system: RPMI-6666; assay: cells; assay type: functional, cell-based, Homo sapiens; conditions: Homo sapiens, RPMI-6666
Description: SANGER: Inhibition of human RPMI-6666 cell growth in a cell viability assay.

[4] = test system: NCI-H2171; assay: cells; assay type: functional, cell-based, Homo sapiens; conditions: Homo sapiens, NCI-H2171;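 further: growth inhibition of human NCI-H2171 cells, read out by a cell viability assay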
Description: SANGER: Inhibition of human NCI-H2171 cell growth in a cell viability assay.

[5] = test system: NCI-H1417; assay: cells; assay type: functional, cell-based, Homo sapiens; conditions: Homo sapiens, NCI-H1417;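 further: human NCI-H1417 cells, growth inhibition determined with a cell viability readout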
Description: SANGER: Inhibition of human NCI-H1417 cell growth in a cell viability assay.

[6] = test system: NCI-H1963; assay: cells; assay type: functional, cell-based, Homo sapiens; conditions: Homo sapiens, NCI-H1963;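 further: cell growth inhibition of the human line, determined with a cell viability assay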
Description: SANGER: Inhibition of human NCI-H1963 cell growth in a cell viability assay.

[7] = test system: ST486; assay: SANGER: Inhibition of human ST486 cell growth in a cell viability assay.; assay type: functional, cell-based; conditions: Homo sapiens, ST486
[8] = test system: YT; assay: cells; assay type: functional, cell-based, Homo sapiens; conditions: Homo sapiens, YT
Description: SANGER: Inhibition of human YT cell growth in a cell viability assay.

[9] = test system: SU-DHL-1; assay: SANGER: Inhibition of human SU-DHL-1 cell growth in a cell viability assay.; assay type: functional, cell-based; conditions: Homo sapiens, SU-DHL-1
[10] = test system: NCI-H2081; assay: cells; assay type: functional, cell-based, Homo sapiens; conditions: Homo sapiens, NCI-H2081;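 further: growth inhibition of human NCI-H2081 cells, read out with a cell viability assay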
Description: SANGER: Inhibition of human NCI-H2081 cell growth in a cell viability assay.

[11] = test system: NCI-H322M; assay: cells; assay type: functional, cell-based, Homo sapiens; conditions: Homo sapiens, NCI-H322M;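 further: cell viability assay measuring inhibition of growth of human NCI-H322M cells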
Description: SANGER: Inhibition of human NCI-H322M cell growth in a cell viability assay.

[12] = test system: SiHa; assay: cells; assay type: functional, cell-based; conditions: Homo sapiens;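 further: Viability-based readout of growth inhibition in SiHa cells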
Description: SANGER: Inhibition of human SiHa cell growth in a cell viability assay.

[13] = test system: FaDu; assay: cells; assay type: functional, cell-based; conditions: Homo sapiens;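 further: cell viability readout of growth inhibition in FaDu cells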
Description: SANGER: Inhibition of human FADU cell growth in a cell viability assay.

[14] = test system: CAMA-1; assay: cells; assay type: functional, cell-based; conditions: Homo sapiens;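 further: growth inhibition of CAMA-1 cells, read out with a cell viability assay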
Description: SANGER: Inhibition of human CAMA-1 cell growth in a cell viability assay.

[15] = test system: HEC-1; assay: cells; assay type: functional, cell-based; conditions: Homo sapiens;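 further: growth inhibition of the cell line, read out with a cell viability assay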
Description: SANGER: Inhibition of human HEC-1 cell growth in a cell viability assay.

[16] = test system: COR-L105; assay: cells; assay type: functional, cell-based; conditions: Homo sapiens
Description: SANGER: Inhibition of human COR-L105 cell growth in a cell viability assay.

[17] = test system: MDA-MB-415; assay: cells; assay type: functional, cell-based; conditions: Homo sapiens
[18] = test system: SAOS-2; assay: cells; assay type: functional, cell-based; conditions: Homo sapiens;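 further: growth inhibition of human Saos-2 cells determined by a cell viability assay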
Description: SANGER: Inhibition of human Saos-2 cell growth in a cell viability assay.

[19] = test system: M14; assay: cells; assay type: functional, cell-based; conditions: Homo sapiens;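 further: growth inhibition of M14 cells, read out with a cell viability assay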
Description: SANGER: Inhibition of human M14 cell growth in a cell viability assay.

[20] = test system: BFTC-909; assay: cells; assay type: functional, cell-based; conditions: Homo sapiens
Description: SANGER: Inhibition of human BFTC-909 cell growth in a cell viability assay.

[21] = test system: SW1417; assay: cells; assay type: functional, cell-based; conditions: Homo sapiens;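 further: growth inhibition of human SW1417 cells, read out with a cell viability assay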
Description: SANGER: Inhibition of human SW1417 cell growth in a cell viability assay.

[22] = test system: EGI-1; assay: cells; assay type: functional, cell-based; conditions: Homo sapiens;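 further: cell viability readout used to gauge growth inhibition of EGI-1 cells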
Description: SANGER: Inhibition of human EGI-1 cell growth in a cell viability assay.

[23] = test system: MHH-ES-1; assay: cells; assay type: functional, cell-based; conditions: Homo sapiens
Description: SANGER: Inhibition of human MHH-ES-1 cell growth in a cell viability assay.

[24] = test system: 8305C; assay: cells; assay type: functional, cell-based; conditions: Homo sapiens
Description: SANGER: Inhibition of human 8305C cell growth in a cell viability assay.

[25] = test system: U-118-MG; assay: cells; assay type: functional, cell-based; conditions: Homo sapiens
Description: SANGER: Inhibition of human U-118-MG cell growth in a cell viability assay.

[26] = test system: U2OS; assay: cells; assay type: functional, cell-based, U-2-OS; conditions: Homo sapiens;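 further: growth inhibition of human U-2-OS cells, determined with a cell viability assay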
Description: SANGER: Inhibition of human U-2-OS cell growth in a cell viability assay.

[27] = test system: COLO-792; assay: cells; assay type: functional, cell-based; conditions: Homo sapiens
Description: SANGER: Inhibition of human COLO-792 cell growth in a cell viability assay.

[28] = test system: HOS; assay: cells; assay type: functional, cell-based; conditions: Homo sapiens;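 further: growth inhibition of human HOS cells, read out with a cell viability assay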
Description: SANGER: Inhibition of human HOS cell growth in a cell viability assay.

[29] = test system: NCI-H2030; assay: cells; assay type: functional, cell-based; conditions: Homo sapiens;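 further: growth inhibition of human NCI-H2030 cells, read out by a cell viability assay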
Description: SANGER: Inhibition of human NCI-H2030 cell growth in a cell viability assay.

[30] = test system: COLO-678; assay: cells; assay type: functional, cell-based; conditions: Homo sapiens
Description: SANGER: Inhibition of human COLO-678 cell growth in a cell viability assay.

[31] = test system: NY; assay: cells; assay type: functional, cell-based; conditions: Homo sapiens
Description: SANGER: Inhibition of human NY cell growth in a cell viability assay.

[32] = test system: A2780; assay: cells; assay type: functional, cell-based; conditions: Homo sapiens;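 further: growth inhibition of A2780 cells, read out with a cell viability assay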
Description: SANGER: Inhibition of human A2780 cell growth in a cell viability assay.

[33] = test system: SW626; assay: cells; assay type: functional, cell-based; conditions: Homo sapiens;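 further: growth inhibition of SW626 cells, measured with a cell viability assay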
Description: SANGER: Inhibition of human SW626 cell growth in a cell viability assay.

[34] = test system: DBTRG-05MG; assay: cells; assay type: functional, cell-based; conditions: Homo sapiens;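 further: cell viability assay measuring growth inhibition of human DBTRG-05MG cells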
Description: SANGER: Inhibition of human DBTRG-05MG cell growth in a cell viability assay.

[35] = test system: RPMI-2650; assay: cells; assay type: functional, cell-based; conditions: Homo sapiens
Description: SANGER: Inhibition of human RPMI-2650 cell growth in a cell viability assay.

[36] = test system: Panc1005; assay: cells; assay type: functional, cell-based; conditions: Homo sapiens;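 further: growth inhibition of human PANC-10-05 cells, measured by a cell viability assay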
Description: SANGER: Inhibition of human PANC-10-05 cell growth in a cell viability assay.

[37] = test system: HuP-T4; assay: cells; assay type: functional, cell-based; conditions: Homo sapiens;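 further: cell viability assay measuring how much HuP-T4 cell growth is inhibited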
Description: SANGER: Inhibition of human HuP-T4 cell growth in a cell viability assay.

[38] = test system: CAL-12T; assay: cells; assay type: functional, cell-based; conditions: Homo sapiens;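 further: growth inhibition of human CAL-12T cells, read out with a cell viability assay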
Description: SANGER: Inhibition of human CAL-12T cell growth in a cell viability assay.

[39] = test system: KYSE-450; assay: cells; assay type: functional, cell-based; conditions: Homo sapiens;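 further: cell growth inhibition measured by a viability assay in human KYSE-450 cells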
Description: SANGER: Inhibition of human KYSE-450 cell growth in a cell viability assay.

[40] = test system: ACHN; assay: cells; assay type: functional, cell-based; conditions: Homo sapiens;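 further: cell viability read-out used to gauge how strongly growth of human ACHN cells is suppressed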
Description: SANGER: Inhibition of human ACHN cell growth in a cell viability assay.

[41] = test system: T98G; assay: cells; assay type: functional, cell-based; conditions: Homo sapiens;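 further: growth inhibition of T98G cells, read out by a cell viability assay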
Description: SANGER: Inhibition of human T98G cell growth in a cell viability assay.

[42] = test system: Detroit 562; assay: cells; assay type: functional, cell-based; conditions: Homo sapiens;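 further: growth inhibition of human Detroit 562 cells, read out by a cell viability assay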
Description: SANGER: Inhibition of human Detroit562 cell growth in a cell viability assay.

[43] = test system: SK-N-AS; assay: cells; assay type: functional, cell-based; conditions: Homo sapiens;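 further: growth inhibition of human SK-N-AS cells, measured with a cell viability assay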
Description: SANGER: Inhibition of human SK-N-AS cell growth in a cell viability assay.

[44] = test system: COLO-679; assay: cells; assay type: functional, cell-based; conditions: Homo sapiens
Description: SANGER: Inhibition of human COLO-679 cell growth in a cell viability assay.

[45] = test system: GAMG; assay: cells; assay type: functional, cell-based; conditions: Homo sapiens;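 further: cell growth inhibition measured by a viability assay in the GAMG human cell line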
Description: SANGER: Inhibition of human GAMG cell growth in a cell viability assay.

[46] = test system: ESS-1; assay: cells; assay type: functional, cell-based; conditions: Homo sapiens;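 further: growth inhibition of human ESS-1 cells, read out by a cell viability assay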
Description: SANGER: Inhibition of human ESS-1 cell growth in a cell viability assay.

[47] = test system: SNU-423; assay: cells; assay type: functional, cell-based; conditions: Homo sapiens
Description: SANGER: Inhibition of human SNU-423 cell growth in a cell viability assay.

[48] = test system: NCI-H28; assay: cells; assay type: functional, cell-based; conditions: Homo sapiens;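 further: growth inhibition of human NCI-H28 cells, read out as cell viability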
Description: SANGER: Inhibition of human NCI-H28 cell growth in a cell viability assay.

[49] = test system: C3A; assay: cells; assay type: functional, cell-based; conditions: Homo sapiens;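 further: growth inhibition of C3A human cells, quantified with a cell viability readout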
Description: SANGER: Inhibition of human C3A cell growth in a cell viability assay.

[50] = test system: MDA-MB-231; assay: cells; assay type: functional, cell-based; conditions: Homo sapiens
Description: SANGER: Inhibition of human MDA-MB-231 cell growth in a cell viability assay.

[51] = test system: JEG-3; assay: cells; assay type: functional, cell-based; conditions: Homo sapiens;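 further: growth inhibition of human JEG-3 cells, read out with a cell viability assay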
Description: SANGER: Inhibition of human JEG-3 cell growth in a cell viability assay.

[52] = test system: NCI-H1437; assay: cells; assay type: functional, cell-based; conditions: Homo sapiens;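 further: growth inhibition of human NCI-H1437 cells, read out by a cell viability assay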
Description: SANGER: Inhibition of human NCI-H1437 cell growth in a cell viability assay.

[53] = test system: ChaGo-K-1; assay: cells; assay type: functional, cell-based; conditions: Homo sapiens;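 further: growth inhibition of ChaGo-K-1 cells, read out with a cell viability assay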
Description: SANGER: Inhibition of human ChaGo-K-1 cell growth in a cell viability assay.

[54] = test system: CHL-1; assay: cells; assay type: functional, cell-based; conditions: Homo sapiens;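 further: cell growth inhibition, read out with a cell viability assay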
Description: SANGER: Inhibition of human CHL-1 cell growth in a cell viability assay.

[55] = test system: HCC1954; assay: cells; assay type: functional, cell-based; conditions: Homo sapiens;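 further: growth inhibition of human HCC1954 cells, read out with a cell viability assay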
Description: SANGER: Inhibition of human HCC1954 cell growth in a cell viability assay.

[56] = test system: D-392MG; assay: cells; assay type: functional, cell-based; conditions: Homo sapiens
[57] = test system: NCI-H727; assay: cells; assay type: functional, cell-based; conditions: Homo sapiens;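 further: growth inhibition of human NCI-H727 cells, read out with a cell viability assay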
Description: SANGER: Inhibition of human NCI-H727 cell growth in a cell viability assay.

[58] = test system: G-402; assay: cells; assay type: functional, cell-based; conditions: Homo sapiens
Description: SANGER: Inhibition of human G-402 cell growth in a cell viability assay.

SMILES: C[C@@H](Oc1cc(-c2cnn(C3CCNCC3)c2)cnc1N)c1c(Cl)ccc(F)c1Cl [CRIZOTINIB]
- IC50 [1]: > 2000 nM
- IC50 [2]: > 2000 nM
- IC50 [3]: > 2000 nM
- IC50 [4]: > 2000 nM
- IC50 [5]: > 2000 nM
- IC50 [6]: > 2000 nM
- IC50 [7]: > 2000 nM
- IC50 [8]: > 2000 nM
- IC50 [9]: 337 nM
- IC50 [10]: > 2000 nM
- IC50 [11]: > 2000 nM

SMILES: NC(=O)c1cccc(-c2cc(Nc3ccc(OC(F)(F)F)cc3)ncn2)c1
- IC50 [1]: > 1280 nM
- IC50 [2]: > 1280 nM
- IC50 [3]: > 1280 nM
- IC50 [4]: > 1280 nM
- IC50 [5]: > 1280 nM
- IC50 [6]: > 1280 nM
- IC50 [7]: > 1280 nM
- IC50 [8]: > 1280 nM
- IC50 [9]: > 1280 nM
- IC50 [10]: > 1280 nM
- IC50 [11]: > 1280 nM

SMILES: CS(=O)(=O)N1CCN(Cc2cc3nc(-c4cccc5[nH]ncc45)nc(N4CCOCC4)c3s2)CC1 [PICTILISIB]
- IC50 [12]: > 4000 nM
- IC50 [13]: > 4000 nM
- IC50 [14]: > 4000 nM
- IC50 [15]: > 4000 nM
- IC50 [16]: > 4000 nM
- IC50 [17]: 1490 nM
- IC50 [18]: 1330 nM
- IC50 [19]: 3310 nM
- IC50 [20]: 1430 nM
- IC50 [21]: > 4000 nM
- IC50 [22]: 1850 nM
- IC50 [23]: > 4000 nM
- IC50 [24]: > 4000 nM
- IC50 [25]: > 4000 nM
- IC50 [26]: 3140 nM
- IC50 [27]: > 4000 nM
- IC50 [28]: 1980 nM
- IC50 [29]: 2240 nM
- IC50 [30]: > 4000 nM
- IC50 [31]: > 4000 nM
- IC50 [32]: > 4000 nM
- IC50 [33]: > 4000 nM
- IC50 [34]: > 4000 nM
- IC50 [35]: 3610 nM
- IC50 [36]: > 4000 nM
- IC50 [37]: 1610 nM
- IC50 [38]: > 4000 nM
- IC50 [39]: > 4000 nM
- IC50 [40]: > 4000 nM
- IC50 [41]: 1990 nM
- IC50 [42]: > 4000 nM
- IC50 [43]: > 4000 nM
- IC50 [44]: > 4000 nM
- IC50 [45]: 371 nM
- IC50 [46]: > 4000 nM
- IC50 [47]: 2400 nM
- IC50 [48]: 3050 nM
- IC50 [49]: > 4000 nM
- IC50 [50]: > 4000 nM
- IC50 [51]: > 4000 nM
- IC50 [52]: > 4000 nM
- IC50 [53]: > 4000 nM
- IC50 [54]: 379 nM
- IC50 [55]: > 4000 nM
- IC50 [56]: > 4000 nM
- IC50 [57]: > 4000 nM
- IC50 [58]: 1900 nM

SMILES: C=CC(=O)N1CCCC(Nc2nc(Nc3ccc(N(C)C(=O)CC)cc3)nc3[nH]cnc23)C1 (configuration not stated)
- IC50 [1]: > 10200 nM
- IC50 [2]: > 10200 nM
- IC50 [3]: > 10200 nM
- IC50 [4]: > 10200 nM
- IC50 [5]: > 10200 nM
- IC50 [6]: > 10200 nM
- IC50 [7]: > 10200 nM
- IC50 [8]: > 10200 nM
- IC50 [9]: > 10200 nM
- IC50 [10]: > 10200 nM
- IC50 [11]: > 10200 nM

SMILES: CC(C)C[C@H](NC(=O)[C@H](Cc1ccccc1)NC(=O)c1cnccn1)B(O)O [BORTEZOMIB]
- IC50 [1]: > 20 nM
- IC50 [2]: > 20 nM
- IC50 [3]: > 20 nM
- IC50 [4]: > 20 nM
- IC50 [5]: 5.51 nM
- IC50 [6]: > 20 nM
- IC50 [7]: > 20 nM
- IC50 [8]: > 20 nM
- IC50 [9]: 7.24 nM
- IC50 [56]: 1.1 nM
- IC50 [10]: 10.1 nM
- IC50 [11]: > 20 nM
